Source: ChEMBL document CHEMBL3593184, “Synthesis of (2-amino)ethyl derivatives of quercetin 3-O-methyl ether and their antioxidant and neuroprotective effects” (Bioorg Med Chem, 2015)

Tests used:
Rattus norvegicus [1] = test: (§1) Neuroprotective activity against middle cerebral artery occlusion-induced focal cerebral ischemia in Sprague-Dawley rat assessed as reduction in edema at 10 mg/kg, iv administered 30 mins after MCA occlusion measured after 2 hrs of reperfusion by TTC staining (reference value: 13 +/- 0.7 %); format: functional; design: scale not given: the % may be the effect or the level left
[2] = Antioxidant activity assessed as DPPH radical scavenging activity after 30 min; format: physicochemical; conditions: DPPH radical solution
Liver microsome = test: Antioxidant activity in rat liver microsomes assessed as reduction in iron-ascorbic acid-induced lipid […] activity after 30 mins by TBARS assay; format: functional; conditions: 0.5 h
Rattus norvegicus [3] = test: as §1, with “absolute infarct volume in striatum” for “edema”, “41.9” for “13”, “29 mm'3)” for “0.7 %)”; format: functional
[4] = Antioxidant activity assessed as superoxide anion radical scavenging activity after 20 mins by xanthine/xanthine oxidase method; format: physicochemical
Rattus norvegicus [5] = test: as §1, with “corrected total infarct volume” for “edema”, “163.2” for “13”, “9.4 mm'3)” for “0.7 %)”; format: functional
Rattus norvegicus [6] = test: as §1, with “absolute infarct total volume” for “edema”, “237.4” for “13”, “13.1 mm'3)” for “0.7 %)”; format: functional
Rattus norvegicus [7] = test: as §1, with “absolute infarct volume in cortex” for “edema”, “195.6” for “13”, “11.5 mm'3)” for “0.7 %)”; format: functional
[8] = Aqueous solubility of the compound at room temperature by HPLC; format: physicochemical; conditions: water

Compound	Activity (Rattus norvegicus [1])	IC50 [2]	IC50 (Liver microsome)	Activity (Rattus norvegicus [3])	IC50 [4]	Activity (Rattus norvegicus [5])	Activity (Rattus norvegicus [6])	Activity (Rattus norvegicus [7])	solubility [8]
CCN(CC)CCOc1cc(O)c2c(=O)c(OC)c(-c3cc(O)c(O)c(O)c3)oc2c1.Cl	9.4%	22.9 µM	11.5 µM	39.3 mm3	> 100 µM	108.9 mm3	164 mm3	123.4 mm3	> 50 mM
COc1c(-c2ccc(O)c(O)c2)oc2cc(O)cc(OCCN3CCCC3)c2c1=O	–	84 µM	23.3 µM	–	4.58 µM	–	–	–	–
CCN(CC)CCOc1cc(O)cc2oc(-c3cc(O)c(O)c(O)c3)c(OC)c(=O)c12	–	22.1 µM	11.2 µM	–	> 100 µM	–	–	–	–
COc1c(-c2ccc(O)c(O)c2)oc2cc(O)cc(OCCN3CCOCC3)c2c1=O	–	> 100 µM	37.4 µM	–	11.2 µM	–	–	–	–
COc1c(-c2cc(O)c(O)c(O)c2)oc2cc(O)cc(OCCN3CCCCC3)c2c1=O	–	32.4 µM	11.9 µM	–	> 100 µM	–	–	–	–
COc1c(-c2ccc(O)c(O)c2)oc2cc(OCCN3CCCC3)cc(O)c2c1=O	–	18.9 µM	21.8 µM	–	11.4 µM	–	–	–	–
CCN(CC)CCOc1cc(O)c2c(=O)c(OC)c(-c3ccc(O)c(O)c3)oc2c1	–	27.4 µM	15.8 µM	–	8.14 µM	–	–	–	–
COc1c(-c2ccc(O)c(O)c2)oc2cc(O)cc(OCCN3CCCCC3)c2c1=O	–	> 100 µM	25.1 µM	–	5.8 µM	–	–	–	–
COc1c(-c2cc(O)c(O)c(O)c2)oc2cc(O)cc(OCCN3CCOCC3)c2c1=O	–	23.2 µM	12 µM	–	> 100 µM	–	–	–	–
COc1c(-c2ccc(O)c(O)c2)oc2cc(OCCN3CCOCC3)cc(O)c2c1=O	–	47.2 µM	16.2 µM	–	7.41 µM	–	–	–	–
COc1c(-c2ccc(O)c(O)c2)oc2cc(OCCN3CCCCC3)cc(O)c2c1=O.Cl	6.7%	20.7 µM	19.2 µM	30.1 mm3	8.15 µM	92.1 mm3	128.9 mm3	93.6 mm3	> 50 mM
COc1c(-c2cc(O)c(O)c(O)c2)oc2cc(OCCN3CCCCC3)cc(O)c2c1=O	–	26.3 µM	10.5 µM	–	> 100 µM	–	–	–	–
COc1c(-c2ccc(O)c(O)c2)oc2cc(O)cc(O)c2c1=O [3-O-METHYLQUERCETIN]	5.5%	14.2 µM	19 µM	27.2 mm3	17.4 µM	78.8 mm3	108.8 mm3	79.9 mm3	> 50 mM
COc1c(-c2cc(O)c(O)c(O)c2)oc2cc(OCCN3CCOCC3)cc(O)c2c1=O	–	26 µM	10.2 µM	–	> 100 µM	–	–	–	–
O=C1O[C@H]([C@@H](O)CO)C(O)=C1O [ASCORBIC ACID]	–	41 µM	–	–	> 50 µM	–	–	–	–
COc1c(-c2cc(O)c(O)c(O)c2)oc2cc(OCCN3CCCC3)cc(O)c2c1=O	–	16.8 µM	10.1 µM	–	> 100 µM	–	–	–	–
COc1c(-c2cc(O)c(O)c(O)c2)oc2cc(O)cc(OCCN3CCCC3)c2c1=O	–	27 µM	10.9 µM	–	> 100 µM	–	–	–	–
CCN(CC)CCOc1cc(O)cc2oc(-c3ccc(O)c(O)c3)c(OC)c(=O)c12	–	> 100 µM	23.3 µM	–	6.53 µM	–	–	–	–
